From the METLIN SMRT retention time set (Domingo-Almenara et al. 2019)

Experiment: gradient 5% acetonitrile 3 min, to 50% in 2 min, to 85% in 15 min, held 3 min, 100 µL/min
Conditions: column: Zorbax Extend-C18 2.1 x 50 mm; eluents: water / acetonitrile, 0.1% formic acid
How it was run: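 Pure standards were run in mixtures of ~100 molecules by HPLC coupled to a quadrupole time-of-flight mass spectrometer. The column was a Zorbax Extend-C18 (2.1 × 50 mm, 1.8 μm) at 100 μL/min, with water and acetonitrile each containing 0.1% formic acid, in positive and negative ionization mode. Dead and dwell volumes were 40 μL and 900 μL. Retention time was taken from computationally picked adduct peaks, each manually inspected, with data collected over 3 months.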

SMILES	RP-LC retention time
CCOCCOC1CCN(S(=O)(=O)c2cccc(OC)c2)CC1	881 s
CCOC(=O)C1CCN(C(=O)c2nc(N3CCCCC3)c3c(C)cc(C)nc3n2)CC1	595 s
COc1ccc2c(c1)C1(CCN(S(=O)(=O)c3ccc4c(c3)CC(=O)N4C)C1)C(=O)N2C (stereo not drawn)	744 s
CN(C)[C@@H]1CN(C(=O)CCc2nc3ccc(Cl)cc3[nH]2)C[C@H]1CO	529 s
O=C(NCCCc1ccccc1)C1CCN(c2cnn(Cc3ccccc3)c(=O)c2)CC1	818 s
Cc1ccc(Cn2c(CN3CC(C)OC(C)C3)nc3c2c(=O)n(C)c(=O)n3C)cc1 (stereo not drawn)	700 s
COc1ccc(CCc2nc3nccc(-c4ccncc4)n3n2)cc1OC	645 s
Cc1cc(C)cc(OCC(=O)N(Cc2ccc(Br)o2)C2CCS(=O)(=O)C2)c1 (stereo not drawn)	966 s
COc1ccc(OC)c(-c2[nH]ncc2CN2CC(F)(F)C[C@H]2CN2CCCCC2)c1	632 s
COc1cc(OC)c(NC(=O)N(C)Cc2nc3cc(C(=O)N4CCCC4)ccc3n2C)cc1Cl	640 s
CC(=O)NCc1nc(-c2ccc(S(=O)(=O)N3CCC(C(=O)N4CCCC4)CC3)cc2)no1	639 s
Cc1nnc(N2CCCC(C(=O)NCCC3=CCCCC3)C2)c2nn(-c3ccc(Cl)cc3)c(C)c12 (stereo not drawn)	861 s
COc1ccc(OC)c(S(=O)(=O)N2CCn3c(nn(CC4CC4)c3=O)C2)c1	734 s
COc1cc(N2C=C(C(=O)N3CCCCC3)S(=O)(=O)c3ccccc32)cc(OC)c1OC	812 s
CCc1noc(-c2ccc(-n3cnc(C(=O)N4CCOCC4)c3)nc2)n1	691 s
COc1ccc(N2CCN(C(=O)C3CCCN(c4nccc5sc(C)cc45)C3)CC2)cc1 (stereo not drawn)	676 s
CCCN(CCC)c1ncc(NC(=O)c2ccc(Br)cc2)cc1C(=O)O	766 s
COCCn1c(C2CCN(S(=O)(=O)c3ccc(F)c(Cl)c3)C2)nc2ccncc21 (stereo not drawn)	590 s
CN(C)CCn1nnc2cc(-c3noc(Cc4ccc(F)cc4)n3)ccc21	714 s
O=C(C1CCOC1)N1CCC(c2nncn2Cc2ccccc2)CC1 (stereo not drawn)	541 s
O=C(O)c1[nH]nc2c1COc1ccccc1-2	673 s
Cn1c(=O)n(CC(=O)O)c(=O)c2c1nc1n2CCCN1c1ccc(Br)cc1	751 s

SMILES	RP-LC retention time
Cc1ccc(Cl)cc1N1CCN(c2cc(C(=O)O)c3cc(NC(=O)C4CCCC4)ccc3n2)CC1	851 s
Cn1nnnc1SCC(=O)NCCn1nc(-c2cccs2)ccc1=O	611 s
Cn1nc(-c2nnc(-c3ccccc3)o2)c2c1CCN(S(=O)(=O)c1ccc(Cl)cc1)C2	992 s
COc1cc(C(=O)N2CCN(c3c(C)n(C)c(=O)n(C)c3=O)CC2)cc(OC)c1OC	673 s
Cc1ccc(S(=O)(=O)N2CCC(c3nc(C(=O)N4CCOCC4)c(C)o3)CC2)cc1	824 s
Cc1ccc(Cn2cccc(C(=O)Nc3nc4c(C)cccc4s3)c2=O)cc1	1240 s
Nc1ccc(SCc2nc3cccc4c3n2CCC4)cc1	662 s
O=C(Nc1nccs1)C1CCN(C(=O)c2cccc(-n3cnnn3)c2)CC1	625 s
CN(C)C(=O)c1ccc2oc(CN3CCN(C(=O)NC4CCCCC4)CC3)nc2c1	614 s
O=C1NCCCCCCN(C(=O)c2cnccn2)[C@H]2CCCC[C@@H]12	684 s
O=C1C(=O)N(C2CCN(S(=O)(=O)c3ccc(F)c(F)c3)CC2)CCN1Cc1ccccc1	827 s
CCCCN1CCc2nc(Nc3cc(OC)ccc3OC)ncc2C1	655 s
CC(=O)N1c2ccc(S(=O)(=O)N3CCCCCC3)cc2CC1C(=O)NC1CCCCCC1 (stereo not drawn)	959 s
Cc1ccc(N2CC(c3nc(-c4cccc(-c5ccnn5C)c4)no3)CC2=O)cc1 (stereo not drawn)	605 s
COc1ccc(OC)c(NC(=O)c2noc3c2CCCC3)c1	1160 s
COc1ccc(-n2nc(N3CCCC(C(=O)NCc4ccco4)C3)ccc2=O)cc1 (stereo not drawn)	740 s
COc1ccc(Cl)cc1NS(=O)(=O)c1cc2n(c1)CCN(C(C)C)C2=O	803 s
CCNC(=O)N1CC=C(C(=O)Nc2ccc(C)cc2)CC1	798 s
N#Cc1ccc(-c2nc(-c3ccc4c(c3)nnn4CCC(=O)N3CCOCC3)no2)cc1	786 s
COc1cccc(NC(=O)Cn2cnc3nc(N4CCC(C(=O)NC5CC5)CC4)sc3c2=O)c1	658 s
Cc1ccc(S(=O)(=O)[C@H]2CS(=O)(=O)C[C@@H]2N2CCN(c3ccccc3F)CC2)cc1	994 s

The next lines start with the values.

RP-LC retention time	SMILES
808 s	CCCC(=O)Nc1ccc2c(c1)C(=O)CC(c1ccc3c(c1)OCO3)O2 (stereo not drawn)
867 s	CCCn1ccc2sc(C)c(C(=O)NCc3ccc(C)o3)c2c1=O
606 s	CCOc1ncccc1C(=O)N1CCN(c2ccc(-c3ccc(OC)c(OC)c3)nn2)CC1
815 s	Cc1cccc(NC(=O)C2CCN(S(=O)(=O)c3ccc4c(c3)sc(=O)n4C(C)C)CC2)n1
814 s	O=C(NCc1ccc2c(c1)N(C(=O)c1ccccc1)CC2)c1cccs1
773 s	CCOc1ccccc1N(C)C(=O)Cc1c(C(=O)O)c(C)cn1C
985 s	CCCCn1cnc2c(-c3ccccc3)cn(CC(=O)NC(C)CC)c2c1=O (stereo not drawn)
692 s	CC(C)c1ccc2c(c1)-c1ccccc1S(=O)(=O)N2CC(=O)NCCN1CCOCC1
960 s	CCOC(=O)c1nc(N2CCN(c3cccc(OC)c3)CC2)c2c(C)noc2n1
1130 s	Cc1ccccc1Cn1nc(-c2nc(-c3ccc(F)cc3)no2)ccc1=O
716 s	CCSc1nnc(-c2nn(C)c3c2CN(C(=O)c2ccccc2)CC3)n1C
771 s	Cn1c(=O)c(N2CCC(NC(=O)NCc3ccc(F)cc3)CC2)nc2cccnc21
1250 s	Cc1cccc(-c2nc(-c3ccc4c(c3)oc(=O)n4C(C)C)no2)c1
715 s	Cc1ccc(C(C)NC(=O)Cn2cc(-c3noc(-c4cccnc4)n3)nc2C)cc1 (stereo not drawn)
733 s	CC(C)N1C(=O)c2cccnc2Sc2cc(NC(=O)C3CC3)ccc21
639 s	O=C(c1ccco1)N1CCCn2cc(-c3ccccc3F)nc21
706 s	O=C(NCc1ccc2c(c1)OCO2)C1CCN(C(=O)c2ccccc2)CC1
1030 s	CCCn1c(=O)c2cc(C(=O)Nc3ccccc3)nn2c2ccccc21
793 s	CN(C)c1cc(-n2cnc(C(=O)NCc3cccc(Cl)c3)c2)ncn1
957 s	CCCNC(=O)c1cc(-c2ccc(Cl)cc2)cn1C
903 s	CCC1=NS(=O)(=O)c2cccnc2N1c1ccc(Br)cc1
834 s	Cc1cccc(NC(=O)N2CCC(C)(C(=O)NCc3ccc(F)cc3)CC2)c1C
1090 s	Cc1cccc(NC(=O)Cn2nc(N3CCCC(C)C3)c3ccccc3c2=O)c1 (stereo not drawn)

RP-LC retention time	SMILES
808 s	Cc1cccc(NC(=O)C2(C)Oc3cccnc3N(C)C2=O)c1C (stereo not drawn)
1100 s	Cc1ccc2oc(-c3nnc(C(=O)NCc4ccc(C)o4)o3)c(C)c2c1
782 s	O=C(NCc1cccc(F)c1)c1cc2n(n1)CCCC2
883 s	CCOc1ccc(CC(=O)N2CCN(c3ccc(-c4nc(C)cs4)cn3)CC2)cc1
750 s	CS(=O)(=O)N1CCC(CNC(=O)c2cc(-c3ccccc3)on2)CC1
594 s	O=C(NCc1n[nH]c(=O)c2ccccc12)C1CC(=O)N(c2ccccc2)C1 (stereo not drawn)
778 s	CCOC(=O)Cn1c(C2CC(=O)N(c3cc(Cl)ccc3OC)C2)nc2ccccc21 (stereo not drawn)
876 s	CCCC(=O)c1cn(CC(=O)NCc2ccc3c(c2)OCCCO3)c2ccccc12
1020 s	CCc1ccccc1NC(=O)N1CCCC(C)(C(=O)NCc2ccccc2C)C1 (stereo not drawn)
868 s	CCOC(=O)C1=C(CNc2ccc(F)cc2)NC(=O)NC1c1ccccc1 (stereo not drawn)
983 s	COC(=O)c1ccccc1OCc1cc(=O)oc2ccc(C)cc12
733 s	CCn1ccc(NC(=O)c2cc(C)ccc2C)n1
764 s	Cc1nn(CC(=O)NCc2ccco2)c(=O)c2c(C)n(-c3ccccc3)nc12
856 s	CCn1nc(C(=O)Nc2cccc3c2C(=O)N(C)C3=O)cc1C
820 s	Cc1cc(C)c(-c2noc(C)n2)c(NC(=O)c2cccc(Br)c2)n1
643 s	Cc1nc(-c2ccc(OC3CCN(C(=O)CCc4nc5ccccc5[nH]4)C3)cc2)no1 (stereo not drawn)
898 s	Cc1cccc(-c2noc(-c3nn(-c4ccccc4)ccc3=O)n2)c1
1100 s	CCC(c1ccccc1)c1nc(-c2ccc3nnn(C)c3c2)no1 (stereo not drawn)
910 s	COC(=O)CC1=CC(SCC(=O)Nc2ccc(Cl)cc2F)=Nc2ccccc2N1
1030 s	Cc1nc(-c2cn(C(C)C)c3ncccc23)sc1C(=O)NCc1ccccc1F
1250 s	CC(C)Cn1c(=O)c2ccccc2n(Cc2nc(-c3cccc(Cl)c3)no2)c1=O
585 s	CCN1CCN(C(=O)C(C)n2c3ccccc3c3cnn(C)c(=O)c32)CC1 (stereo not drawn)
